Results as given in the supplement of paper PMC10627819.

How the values were obtained:
S. pneumoniae D39V [1] = assay: fitness (endpoint OD595 vs no drug) (fraction); higher = more growth
How it was run: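 In 384-well plates at 37 °C, cultures began at OD595 0.01 in 30 µl, with 55 µl used for S. pneumoniae. OD595 readings every 30 min for 14 h were corrected by the first reading. Fitness divides the stationary-phase transition optical density by the robust mean of no-drug control wells. The result is capped at 1.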

B. subtilis 168 = assay: Bliss interaction score (quartile over a dose matrix) (fitness difference); higher = more antagonism (negative = synergy)
How it was run: (§1)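 Values were capped at 1 after dividing OD595 at stationary-phase entry by the plate's robust no-drug mean. This ratio is fitness, and single-drug fitness was inferred from the combination data. The Bliss score is observed minus product-expected fitness, given as quartiles over technical, biological and donor/recipient replicates.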

S. aureus DSM 20231 = assay: as above
How it was run: as §1

S. aureus Newman = assay: as above
How it was run: as §1

S. pneumoniae D39V [2] = assay: as above
How it was run: as §1
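Throughout, for Bliss interaction score (quartile over a dose matrix): first quartile when negative (synergy) and third quartile when positive (antagonism).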

CO/N=C(\C(=O)N[C@@H]1C(=O)N2C(C(=O)[O-])=C(C[N+]3(C)CCCC3)CS[C@H]12)c1csc(N)n1 [Cefepime] + Clc1ccc(COC(Cn2ccnc2)c2ccc(Cl)cc2Cl)c(Cl)c1 [Miconazole]
S. pneumoniae D39V [1]
Conditions | fitness
first compound 0.007 µg/mL, partner 1.25 µg/mL | 0.985
first compound 0.007 µg/mL, partner 2.5 µg/mL | 0.982
first compound 0.007 µg/mL, partner 5 µg/mL | 0.965
first compound 0.0078 µg/mL, partner 1.073 µg/mL | ≥ 1
first compound 0.0078 µg/mL, partner 2.145 µg/mL | ≥ 1
first compound 0.0078 µg/mL, partner 4.29 µg/mL | 0.948
first compound 0.014 µg/mL, partner 1.25 µg/mL | 0.934
first compound 0.014 µg/mL, partner 2.5 µg/mL | 0.969
first compound 0.014 µg/mL, partner 5 µg/mL | 0.943
first compound 0.0155 µg/mL, partner 1.073 µg/mL | 0.995
first compound 0.0155 µg/mL, partner 2.145 µg/mL | 0.851
first compound 0.0155 µg/mL, partner 4.29 µg/mL | 0.848
first compound 0.028 µg/mL, partner 1.25 µg/mL | 0.87
first compound 0.028 µg/mL, partner 2.5 µg/mL | 0.872
first compound 0.028 µg/mL, partner 5 µg/mL | 0.861
first compound 0.031 µg/mL, partner 4.29 µg/mL | 0.491

Conditions | Bliss interaction score
B. subtilis 168 | 0.0393
S. aureus DSM 20231 | -0.109
S. aureus Newman | -0.0643
S. pneumoniae D39V [2] | 0.0753

CO/N=C(\C(=O)N[C@@H]1C(=O)N2C(C(=O)[O-])=C(C[N+]3(C)CCCC3)CS[C@H]12)c1csc(N)n1 [Cefepime] + O=C1CN(/N=C/c2ccc([N+](=O)[O-])o2)C(=O)N1 [Nitrofurantoin]
fitness, S. pneumoniae D39V [1]
Conditions | first compound 0.007 µg/mL | first compound 0.0078 µg/mL | first compound 0.014 µg/mL | first compound 0.0155 µg/mL | first compound 0.028 µg/mL | first compound 0.031 µg/mL
partner 1.285 µg/mL | – | 0.957 | – | 0.943 | – | 0.811
partner 2 µg/mL | 0.988 | – | 0.979 | – | 0.912 | –
partner 2.57 µg/mL | – | 0.962 | – | 0.942 | – | 0.738
partner 4 µg/mL | 0.991 | – | 0.955 | – | 0.887 | –
partner 8 µg/mL | 0.949 | – | 0.927 | – | 0.843 | –

S. pneumoniae D39V [1], partner 5.14 µg/mL, one replicate
Conditions | fitness
first compound 0.0078 µg/mL | 0.959
first compound 0.0155 µg/mL | 0.993
first compound 0.031 µg/mL | 0.825

Conditions | Bliss interaction score
B. subtilis 168 | -0.125
S. aureus DSM 20231 | 0.0422
S. aureus Newman | 0.0549
S. pneumoniae D39V [2] | 0.188

CCCCCCCCCC(=O)N[C@@H](Cc1c[nH]c2ccccc12)C(=O)N[C@H](CC(N)=O)C(=O)N[C@@H](CC(=O)O)C(=O)N[C@@H]1C(=O)NCC(=O)N[C@@H](CCCN)C(=O)N[C@@H](CC(=O)O)C(=O)N[C@H](C)C(=O)N[C@@H](CC(=O)O)C(=O)NCC(=O)N[C@H](CO)C(=O)N[C@@H]([C@H](C)CC(=O)O)C(=O)N[C@@H](CC(=O)c2ccccc2N)C(=O)O[C@@H]1C [Daptomycin] + CO[C@H]1/C=C/O[C@@]2(C)Oc3c(C)c(O)c4c(O)c(c(/C=N/N5CCN(C)CC5)c(O)c4c3C2=O)NC(=O)/C(C)=C\C=C\[C@H](C)[C@H](O)[C@@H](C)[C@@H](O)[C@@H](C)[C@H](OC(C)=O)[C@@H]1C [Rifampicin]
fitness, S. pneumoniae D39V [1]
Conditions | first compound 1 µg/mL | first compound 2 µg/mL | first compound 4 µg/mL
partner 0.025 µg/mL | 0.978 | ≥ 1 | ≥ 1
partner 0.05 µg/mL | 0.823 | 0.864 | 0.926
partner 0.1 µg/mL | 0.262 | 0.271 | –

S. pneumoniae D39V [1], partner 0.2 µg/mL, one replicate
Conditions | fitness
first compound 1 µg/mL | 0
first compound 2 µg/mL | 0
first compound 4 µg/mL | 0

Conditions | Bliss interaction score
B. subtilis 168 | -0.0667
S. aureus DSM 20231 | -0.0427
S. aureus Newman | 0.0195
S. pneumoniae D39V [2] | 0.104

CCCCCCCCCC(=O)N[C@@H](Cc1c[nH]c2ccccc12)C(=O)N[C@H](CC(N)=O)C(=O)N[C@@H](CC(=O)O)C(=O)N[C@@H]1C(=O)NCC(=O)N[C@@H](CCCN)C(=O)N[C@@H](CC(=O)O)C(=O)N[C@H](C)C(=O)N[C@@H](CC(=O)O)C(=O)NCC(=O)N[C@H](CO)C(=O)N[C@@H]([C@H](C)CC(=O)O)C(=O)N[C@@H](CC(=O)c2ccccc2N)C(=O)O[C@@H]1C [Daptomycin] + C[C@@H](O)[C@H]1C(=O)N2C(C(=O)O)=C(SCCNC=N)C[C@H]12 [Imipenem]
fitness, S. pneumoniae D39V [1]
Conditions | partner 0.005 µg/mL | partner 0.0065 µg/mL | partner 0.01 µg/mL | partner 0.013 µg/mL | partner 0.02 µg/mL | partner 0.026 µg/mL
first compound 1 µg/mL | 0.962 | 0.886 | 0.986 | 0.808 | 0.935 | 0.716
first compound 2 µg/mL | 0.979 | 0.895 | 0.931 | 0.837 | 0.989 | 0.843
first compound 4 µg/mL | 0.902 | 0.93 | 0.884 | 0.947 | 0.897 | 0.887

Conditions | Bliss interaction score
B. subtilis 168 | -0.0985
S. aureus DSM 20231 | 0.0417
S. aureus Newman | 0.0265
S. pneumoniae D39V [2] | 0.0763

CCCCCCCCCC(=O)N[C@@H](Cc1c[nH]c2ccccc12)C(=O)N[C@H](CC(N)=O)C(=O)N[C@@H](CC(=O)O)C(=O)N[C@@H]1C(=O)NCC(=O)N[C@@H](CCCN)C(=O)N[C@@H](CC(=O)O)C(=O)N[C@H](C)C(=O)N[C@@H](CC(=O)O)C(=O)NCC(=O)N[C@H](CO)C(=O)N[C@@H]([C@H](C)CC(=O)O)C(=O)N[C@@H](CC(=O)c2ccccc2N)C(=O)O[C@@H]1C [Daptomycin] + Clc1ccc(COC(Cn2ccnc2)c2ccc(Cl)cc2Cl)c(Cl)c1 [Miconazole]
fitness, S. pneumoniae D39V [1]
Conditions | partner 1.073 µg/mL | partner 1.25 µg/mL | partner 2.145 µg/mL | partner 2.5 µg/mL | partner 4.29 µg/mL | partner 5 µg/mL
first compound 1 µg/mL | 0.962 | 0.922 | 0.967 | 0.913 | 0.841 | 0.898
first compound 2 µg/mL | 0.984 | 0.888 | 0.981 | 0.896 | 0.881 | 0.86
first compound 4 µg/mL | ≥ 1 | 0.847 | ≥ 1 | 0.813 | 0.882 | 0.836

Conditions | Bliss interaction score
B. subtilis 168 | 0.0988
S. aureus DSM 20231 | -0.0305
S. aureus Newman | -0.0424
S. pneumoniae D39V [2] | 0.0797
